In patent US20250049812A1, “Compounds that Inhibit Necroptosis and Their Preparation Methods” (SHANGHAI INSTITUTE OF ORGANIC CHEMISTRY, CHINESE ACADEMY OF …, priority 2021, published 2025):

tested on: Jurkat FADD (−/−) Cells; assay: TNF-α induced necroptosis of Jurkat FADD-deficient cells (CellTiter-Glo cell survival); assay type: cell-based, human; conditions: Homo sapiens, Jurkat, 13 h
Protocol: 1. Cell Activity Testing System (TNF-α Induces the Necroptosis of Jurkat Cells, the Human Leukemia Cells Deficient in FADD).
(1) Cell culture: Jurkat FADD-deficient cells were cultured in an RPMI 1640 medium with 10% fetal bovine serum (FBS), 100 U/mL penicillin, and 100 […]. The cells were cultured in a cell culture incubator at 37° C. with 5% CO2. And all the cells were cryopreserved in a complete medium containing 5-10% DMSO. Medium change and passage were performed 3-4 times per week.
(4) Experimental scheme: The system of TNF-α inducing the necroptosis of Jurkat FADD-deficient cells was used to screen for compounds with RIPKl kinase inhibitory activity.
Jurkat FADD-deficient cells were evenly inoculated into a 384-well plate with each well added with a 40 μL complete culture medium, followed by the addition of 5 μL of the under-testing compound to each well. The initial concentration of the compounds was set at 25 μM (for some compounds with higher activity, the initial concentration was set at 0.5 μM), with a three-fold gradient dilution, totaling 12 gradient points. Three replicate wells were set for each compound. In addition, there was a blank control group and a control group with TNFα stimulation only. After the compound was added, the mixture needed to be centrifuged and incubated in a cell culture incubator at 37° C. containing 5% CO2 for 1 hour. After that, 5 μL of 5 ng/mL TNFα was added to stimulate the occurrence of necroptosis. After centrifugation and mixing, the mixture was placed in the cell culture incubator for 13 hours (until the cell death rate reaches 65% in the group with only TNF-α), with a total volume of 50 μL per well. Then, the steps below were followed to test the cell survival rate.
The CellTiter-Glo® Buffer was removed from the reagent kit, equilibrated to room temperature, and used to dissolve the CellTiter-Glo® Substrate. The CellTiter-Glo® Reagent obtained could be directly used for the experiment.
15 μL of CellTiter-Glo® Reagent which has been equilibrated to room temperature was added to each well, and incubated in the dark for 15 minutes. After that, a microplate reader (Enspire Multimode Plate Reader of PerkinElmer, USA) was used to measure the chemiluminescence.

For `COC(=O)c1cn2c3c(cccc13)N(C)C(=O)[C@@H](NC(=O)c1nnc(Cc3ccccc3)[nH]1)C2` [T-95, Methyl (S)-3-(5-benzyl-4H-1,2,4-triazole-3-carboxamide)-1-methyl-2-oxo-1,2,3,4-tetrahydro-[1,4] diazepine [3,2,1-hi] indole-7-carboxylate], which IC50 is on record?
Its IC50 is 100 to 1000 nM.

same assay, conditions: Homo sapiens; TNF-α induced necroptosis, Jurkat FADD-deficient cells, 13 hours, CellTiter-Glo; read-out: IC50

For `CN1C(=O)[C@@H](NC(=O)c2nnc(Cc3ccccc3)[nH]2)Cn2cc(-c3cnn(C4CC4)c3)c3cccc1c32` [T-121, (S)-5-benzyl-N-(7-(1-cyclopropyl-1H-pyrazol-4-yl)-1-methyl-2-oxo-1,2,3,4-tetrahydro-1,4-diazepino [3,2,1-hi]indol-3-yl)-4H-1,2,4-triazole-3-carboxamide], which IC50 is on record?
Its IC50 is 10 to 100 nM.

With `CN1C(=O)C(NC(=O)c2nnc(Cc3ccccc3)[nH]2)Cc2cn(-c3ncccc3P(C)(C)=O)c3cccc1c23` (racemic) [T-110, (±)-5-benzyl-N-(6-(3-(dimethylphosphoryl)pyridin-2-yl)-1-methyl-2-oxo-2,3,4,6-tetrahydro-1H-aza [4,3,2-cd]indol-3-yl)-4H-1,2,4-triazole-3-carboxamide] as the compound, how does the IC50 read?
The IC50 was > 1000 nM.

Which IC50 does the source give for `CN1C(=O)C(NC(=O)c2nnc(Cc3ccccc3)[nH]2)Cn2cc(-c3ccnc(C(F)(F)F)c3)c3cccc1c32` (racemic) [T-77, (±)-5-benzyl-N-(1-methyl-2-oxo-7-(2-(trifluoromethyl)pyridin-4-yl)-1,2,3,4-tetrahydro-[1,4]diazepino [3,2,1-hi]indol-3-yl)-4H-1,2,4-triazole-3-carboxamide] here?
The IC50 was 100 to 1000 nM.

For `COc1ccccc1-c1cn2c3c(cccc13)N(C)C(=O)C(NC(=O)c1nnc(Cc3ccccc3)[nH]1)C2` (racemic) [T-87, (±)-5-benzyl-N-(7-(2-methoxyphenyl)-1-methyl-2-oxo-1,2,3,4-tetrahydro-[1,4]diazepine [3,2,1-hi]indol-3-yl)-4H-1,2,4-triazole-3-carboxamide], which IC50 is on record?
The IC50 was 10 to 100 nM.

With `CN1C(=O)C(NC(=O)c2nnc(Cc3ccccc3)[nH]2)Cc2cn(-c3ncccc3O)c3cccc1c23` (racemic) [T-47, (±)-5-benzyl-N-(6-(3-hydroxypyridin-2-yl)-1-methyl-2-oxo-2,3,4,6-tetrahydro-1H-azacyclo [4,3,2-cd]indol-3-yl)-4H-1,2,4-triazole-3-carboxamide] as the compound, how does the IC50 read?
The IC50 was 100 to 1000 nM.

`CN1C(=O)C(NC(=O)c2nnc(Cc3ccccc3)[nH]2)Cc2cn(-c3ccnn3C)c3cccc1c23` (racemic) [T-36, (±)-5-benzyl-N-(1-methyl-6-(1-methyl-1H-pyrazol-5-yl)-2-oxo-2,3,4,6-tetrahydro-1H-azacyclo [4,3,2-cd]indol-3-yl)-4H-1,2,4-triazole-3-carboxamide] was tested. Which IC50 did it give?
The IC50 was < 10 nM.

With `Cc1cnn(C)c1-c1cn2c3c(cccc13)N(C)C(=O)C(NC(=O)c1nnc(Cc3ccccc3)[nH]1)C2` (stereo not drawn) [T-81, 5-benzyl-N-(7-(1,4-dimethyl-1H-pyrazol-5-yl)-1-methyl-2-oxo-1,2,3,4-tetrahydro-[1,4]diazepino[3,2,1-hi]indol-3-yl)-4H-1,2,4-triazole-3-carboxamide] as the compound, how does the IC50 read?
Its IC50 is < 10 nM.

How did the IC50 turn out when `CN1C(=O)C(NC(=O)c2nnc(Cc3ccccc3)[nH]2)Cc2cn(-c3ncccc3C(C)(C)O)c3cccc1c23` (racemic) [T-55, (±)-5-benzyl-N-(6-(3-(2-hydroxypropan-2-yl)pyridin-2-yl)-1-methyl-2-oxy-2,3,4,6-tetrahydro-1H-azacyclo [4,3,2-cd]indol-3-yl)-4H-1,2,4-triazole-3-carboxamide] was run?
The IC50 was 10 to 100 nM.

How did the IC50 turn out when `CC(=O)c1cccnc1-n1cc2c3c(cccc31)N(C)C(=O)C(NC(=O)c1nnc(Cc3ccccc3)[nH]1)C2` (racemic) [T-59, (±)-N-(6-(3-acetylpyridin-2-yl)-1-methyl-2-oxo-2,3,4,6-tetrahydro-1H-azacyclo [4,3,2-cd]indol-3-yl)-5-benzyl-4H-1,2,4-triazole-3-carboxamide] was run?
Its IC50 is < 10 nM.

Which IC50 does the source give for `CN1C(=O)C(NC(=O)c2ncc(Cc3ccccc3)o2)Cn2ccc3cccc1c32` (racemic) [T-2, (±)-5-benzyl-N-(1-methyl-2-oxy-1,2,3,4-tetrahydro-[1,4]diazepino [3,2,1-hi]indol-3-yl) oxazole-2-carboxamide] here?
Its IC50 is < 10 nM.

`CN1C(=O)C(NC(=O)c2nnc(Cc3ccccc3)[nH]2)Cc2cn(S(=O)(=O)c3ccccc3)c3cccc1c23` (racemic) [T-21, (±)-5-benzyl-N-(1-methyl-2-oxo-6-(benzenesulfonyl)-2,3,4,6-tetrahydro-1H-aza [4,3,2-cd]indol-3-yl)-4H-1,2,4-triazole-3-carboxamide] was tested. Which IC50 did it give?
Its IC50 is 100 to 1000 nM.

`COC(=O)c1cc(-n2cc3c4c(cccc42)N(C)C(=O)C(NC(=O)c2nnc(Cc4ccccc4)[nH]2)C3)cn1C` (racemic) [T-100, (±)-methyl4-(3-(5-benzyl-4H-1,2,4-triazole-3-carboxamide)-1-methyl-2-oxo-1,2,3,4-tetrahydro-6H-azacyclo [4,3,2-cd]indol-6-yl)-1-methyl-1H-pyrrole-2-carboxylate] was tested. Which IC50 did it give?
The IC50 was 10 to 100 nM.

`CC(C)c1cccnc1-n1cc2c3c(cccc31)N(C)C(=O)C(NC(=O)c1nnc(Cc3ccccc3)[nH]1)C2` (racemic) [T-65, (±)-5-benzyl-N-(6-(3-isopropylpyridin-2-yl)-1-methyl-2-oxo-2,3,4,6-tetrahydro-1H-azacyclo [4,3,2-cd]indol-3-yl)-4H-1,2,4-triazole-3-carboxamide] was tested. Which IC50 did it give?
Its IC50 is 10 to 100 nM.

`CN1C(=O)C(NC(=O)c2nnc(Cc3ccccc3)[nH]2)Cc2cn(-c3ccccn3)c3cccc1c23` (racemic) [T-69, (±)-5-benzyl-N-(1-methyl-2-oxo-6-(pyridin-2-yl)-2,3,4,6-tetrahydro-1H-azacyclo [4,3,2-cd]indol-3-yl)-4H-1,2,4-triazole-3-carboxamide] was tested. Which IC50 did it give?
Its IC50 is 10 to 100 nM.

How did the IC50 turn out when `CN1C(=O)[C@@H](NC(=O)c2nnc(Cc3ccccc3)[nH]2)Cn2cc(-c3ccn[nH]3)c3cccc1c32` [T-116, (S)-5-benzyl-N-(1-methyl-2-oxo-7-(1H-pyrazol-5-yl)-1,2,3,4-tetrahydro-[1,4]diazepine [3,2,1-hi]indol-3-yl)-4H-1,2,4-triazole-3-carboxamide] was run?
The IC50 was 10 to 100 nM.

`CN1C(=O)C(NC(=O)c2nnc(Cc3ccccc3)[nH]2)Cc2c[nH]c3ccc(F)c1c23` (racemic) [T-131, (±)-5-benzyl-N-(9-fluoro-1-methyl-2-oxo-2,3,4,6-tetrahydroazepincd [4,3,2-cd]indol-3-yl)-4H-1,2,4-triazole-3-carboxamide] was tested. Which IC50 did it give?
The IC50 was < 10 nM.

`CC(C#N)Cn1cc2c3c(cccc31)N(C)C(=O)C(NC(=O)c1nnc(Cc3ccccc3)[nH]1)C2` (racemic) [T-27, (±)-5-benzyl-N-(6-(2-cyanopropyl)-1-methyl-2-oxo-2,3,4,6-tetrahydro-1H-azacyclo [4,3,2-cd]indol-3-yl)-4H-1,2,4-triazole-3-carboxamide] was tested. Which IC50 did it give?
The IC50 was 10 to 100 nM.

For `CN1C(=O)C(NC(=O)c2nnc(Cc3ccccc3)[nH]2)Cc2cn(-c3ncccc3S(=O)(=O)C3CC3)c3cccc1c23` (racemic) [T-109, (±)-5-benzyl-N-(6-(3-(cyclopropylsulfonyl)pyridin-2-yl)-1-methyl-2-oxo-2,3,4,6-tetrahydro-1H-azacyclo [4,3,2-cd]indol-3-yl)-4H-1,2,4-triazole-3-carboxamide], which IC50 is on record?
Its IC50 is < 10 nM.

With `CN1C(=O)C(NC(=O)c2nnc(Cc3ccccc3)[nH]2)Cc2cn(-c3ncccc3OC(F)(F)F)c3cccc1c23` (racemic) [T-105, (±)-5-benzyl-N-(1-methyl-2-oxo-6-(3-(trifluoromethoxy)pyridin-2-yl)-2,3,4,6-tetrahydro-1H-azacyclo [4,3,2-cd]indol-3-yl)-4H-1,2,4-triazole-3-carboxamide] as the compound, how does the IC50 read?
Its IC50 is < 10 nM.

For `CN1C(=O)C(NC(=O)c2nnc(Cc3ccccc3)[nH]2)Cc2cn(-c3ccncc3)c3cccc1c23` (racemic) [T-102, (±)-5-benzyl-N-(1-methyl-2-oxo-6-(pyridin-4-yl)-2,3,4,6-tetrahydro-1H-azacyclo [4,3,2-cd]indol-3-yl)-4H-1,2,4-triazole-3-carboxamide], which IC50 is on record?
Its IC50 is 10 to 100 nM.

For `CN1C(=O)C(NC(=O)c2nnc(Cc3ccccc3)[nH]2)Cc2cn(-c3ncccc3C(N)=O)c3cccc1c23` (racemic) [T-61, (±)-2-(3-(5-benzyl-4H-1,2,4-triazole-3-carboxamide)-1-methyl-2-oxy-1,2,3,4-tetrahydro-6H-azacyclo [4,3,2-cd]indol-6-yl)nicotinamide], which IC50 is on record?
Its IC50 is 10 to 100 nM.

same assay, conditions: TNF-α induced necroptosis, Jurkat FADD-deficient cells, 13 hours, CellTiter-Glo; read-out: IC50

With “(±)-5-(3-(5-benzyl-4H-1,2,4-triazole-3-carboxamido)-1-methyl-2-oxo-1,2,3,4-tetrahydro-6H-azacyclo [4,3,2-cd] indol-6-yl)oxazole-4-carboxylate [T-98]” as the compound, how does the IC50 read?
The IC50 was < 10 nM.

`Cc1nn(C)c(C)c1-c1cn2c3c(cccc13)N(C)C(=O)C(NC(=O)c1nnc(Cc3ccccc3)[nH]1)C2` (racemic) [T-119, (±)-5-benzyl-N-(1-methyl-2-oxo-7-(1,3,5-trimethyl-1H-pyrazol-4-yl)-1,2,3,4-tetrahydro-[1,4]diazepine [3,2,1-hi]indol-3-yl)-4H-1,2,4-triazole-3-carboxamide] was tested. Which IC50 did it give?
The IC50 was < 10 nM.
